In experiment [1] the target is T1, Mitogen-activated protein kinase 12 (Homo sapiens) (UniProt P53778).
T1 sequence (whole entry): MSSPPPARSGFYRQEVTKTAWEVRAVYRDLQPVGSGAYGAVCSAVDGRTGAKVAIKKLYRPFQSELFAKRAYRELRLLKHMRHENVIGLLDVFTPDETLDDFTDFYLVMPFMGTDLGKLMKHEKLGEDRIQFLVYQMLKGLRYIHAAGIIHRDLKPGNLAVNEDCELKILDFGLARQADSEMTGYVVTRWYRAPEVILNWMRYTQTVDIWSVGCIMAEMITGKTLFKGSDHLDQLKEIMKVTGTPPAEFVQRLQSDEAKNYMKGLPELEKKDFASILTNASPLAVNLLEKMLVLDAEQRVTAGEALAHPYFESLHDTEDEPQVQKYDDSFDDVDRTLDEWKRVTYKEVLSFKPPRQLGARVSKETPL
The experiment can be described thus: Inhibition of human full length p38 gamma expressed in Escherichia coli cell assessed as substrate phosphorylation using fluorescence-labelled peptides as substrate at 0.1 uM after 90 mins by microfluidic peptide phosphorylation assay.

Experiment [2] has as its target Aurora kinase B (Homo sapiens) (UniProt Q96GD4). The experiment can be described thus: Inhibition of human full length AurB expressed in baculovirus assessed as substrate phosphorylation using fluorescence-labelled peptides as substrate at 420 uM after 90 mins by microfluidic peptide phosphorylation assay.
In experiment [3] the target is Protein kinase C beta type (Homo sapiens) (UniProt P05771). The experiment can be described thus: Inhibition of human full length PKC beta2 expressed in baculovirus assessed as substrate phosphorylation using fluorescence-labelled peptides as substrate at 420 uM after 90 mins by microfluidic peptide phosphorylation assay.
Sequence of Protein kinase C beta type (Homo sapiens) (P05771 2-671 limits assumed): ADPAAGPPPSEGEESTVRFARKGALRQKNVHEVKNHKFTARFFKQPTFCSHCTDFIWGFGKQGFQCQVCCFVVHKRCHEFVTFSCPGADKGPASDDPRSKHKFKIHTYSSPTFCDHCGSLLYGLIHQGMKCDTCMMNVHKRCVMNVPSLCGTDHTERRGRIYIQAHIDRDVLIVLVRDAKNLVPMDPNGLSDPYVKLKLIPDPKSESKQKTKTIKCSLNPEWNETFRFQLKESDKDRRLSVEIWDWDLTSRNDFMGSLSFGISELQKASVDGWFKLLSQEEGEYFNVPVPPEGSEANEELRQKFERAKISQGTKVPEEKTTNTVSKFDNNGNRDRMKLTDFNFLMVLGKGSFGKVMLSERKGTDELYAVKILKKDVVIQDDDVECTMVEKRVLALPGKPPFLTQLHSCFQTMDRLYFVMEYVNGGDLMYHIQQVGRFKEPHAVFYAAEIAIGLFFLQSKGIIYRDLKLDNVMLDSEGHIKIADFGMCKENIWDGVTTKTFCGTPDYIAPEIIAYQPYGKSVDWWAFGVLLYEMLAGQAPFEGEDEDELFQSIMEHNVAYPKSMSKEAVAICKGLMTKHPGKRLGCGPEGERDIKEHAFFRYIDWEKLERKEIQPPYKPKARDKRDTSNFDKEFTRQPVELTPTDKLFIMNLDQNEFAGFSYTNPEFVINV
Experiment [4] deals with T2, Cytoplasmic tyrosine-protein kinase BMX (Homo sapiens) (UniProt P51813).
T2 sequence (whole entry): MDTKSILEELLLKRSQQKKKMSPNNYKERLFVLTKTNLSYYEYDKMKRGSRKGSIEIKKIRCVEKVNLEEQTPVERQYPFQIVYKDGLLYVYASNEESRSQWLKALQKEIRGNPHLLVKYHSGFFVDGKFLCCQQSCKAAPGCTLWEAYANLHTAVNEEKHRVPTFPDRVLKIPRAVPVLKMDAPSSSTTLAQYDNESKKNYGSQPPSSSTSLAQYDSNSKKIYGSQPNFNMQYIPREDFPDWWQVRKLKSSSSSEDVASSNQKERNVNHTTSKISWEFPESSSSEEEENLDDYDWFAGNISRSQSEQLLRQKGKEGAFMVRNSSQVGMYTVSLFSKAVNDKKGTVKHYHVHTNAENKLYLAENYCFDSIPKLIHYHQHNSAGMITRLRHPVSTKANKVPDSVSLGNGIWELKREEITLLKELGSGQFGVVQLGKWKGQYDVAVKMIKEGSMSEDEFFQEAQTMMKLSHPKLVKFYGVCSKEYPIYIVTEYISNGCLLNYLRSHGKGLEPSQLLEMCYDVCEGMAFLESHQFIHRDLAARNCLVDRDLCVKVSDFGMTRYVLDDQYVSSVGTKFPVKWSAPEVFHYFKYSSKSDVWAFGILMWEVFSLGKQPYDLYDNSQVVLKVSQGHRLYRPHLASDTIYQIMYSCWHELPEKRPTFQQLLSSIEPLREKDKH
The experiment can be described thus: Inhibition of human full length BMX expressed in baculovirus assessed as substrate phosphorylation using fluorescence-labelled peptides as substrate at 95 uM after 90 mins by microfluidic peptide phosphorylation assay.

In experiment [5] the target is Protein kinase C delta type (Homo sapiens) (UniProt Q05655). The experiment can be described thus: Inhibition of human truncated PKC delta expressed in baculovirus assessed as substrate phosphorylation using fluorescence-labelled peptides as substrate at 9 uM after 90 mins by microfluidic peptide phosphorylation assay.
Sequence of Protein kinase C delta type (Homo sapiens) (Q05655 whole entry, looked up, the tested form may be a part): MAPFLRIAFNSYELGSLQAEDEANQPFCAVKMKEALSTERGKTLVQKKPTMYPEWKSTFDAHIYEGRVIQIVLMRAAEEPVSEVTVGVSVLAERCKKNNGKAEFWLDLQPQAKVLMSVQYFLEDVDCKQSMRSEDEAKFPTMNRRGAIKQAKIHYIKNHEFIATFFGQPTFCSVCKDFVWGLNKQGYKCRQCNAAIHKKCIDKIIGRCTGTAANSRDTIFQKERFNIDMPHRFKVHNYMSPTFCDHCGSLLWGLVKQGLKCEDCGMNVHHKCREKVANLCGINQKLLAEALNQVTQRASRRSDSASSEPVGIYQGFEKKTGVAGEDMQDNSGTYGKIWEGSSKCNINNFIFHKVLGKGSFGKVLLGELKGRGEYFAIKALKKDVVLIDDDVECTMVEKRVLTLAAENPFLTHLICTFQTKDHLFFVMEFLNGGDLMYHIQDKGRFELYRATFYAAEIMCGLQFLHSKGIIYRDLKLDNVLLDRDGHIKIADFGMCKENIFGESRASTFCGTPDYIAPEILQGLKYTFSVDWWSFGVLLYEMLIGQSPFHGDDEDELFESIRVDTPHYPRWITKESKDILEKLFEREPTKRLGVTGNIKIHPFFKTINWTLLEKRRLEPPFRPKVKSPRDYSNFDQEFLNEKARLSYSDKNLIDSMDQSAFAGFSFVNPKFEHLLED
The target in experiment [6] is Ribosomal protein S6 kinase alpha-1 (Homo sapiens) (UniProt Q15418). The settings on record: 9 uM.
Sequence of Ribosomal protein S6 kinase alpha-1 (Homo sapiens) (Q15418 whole entry): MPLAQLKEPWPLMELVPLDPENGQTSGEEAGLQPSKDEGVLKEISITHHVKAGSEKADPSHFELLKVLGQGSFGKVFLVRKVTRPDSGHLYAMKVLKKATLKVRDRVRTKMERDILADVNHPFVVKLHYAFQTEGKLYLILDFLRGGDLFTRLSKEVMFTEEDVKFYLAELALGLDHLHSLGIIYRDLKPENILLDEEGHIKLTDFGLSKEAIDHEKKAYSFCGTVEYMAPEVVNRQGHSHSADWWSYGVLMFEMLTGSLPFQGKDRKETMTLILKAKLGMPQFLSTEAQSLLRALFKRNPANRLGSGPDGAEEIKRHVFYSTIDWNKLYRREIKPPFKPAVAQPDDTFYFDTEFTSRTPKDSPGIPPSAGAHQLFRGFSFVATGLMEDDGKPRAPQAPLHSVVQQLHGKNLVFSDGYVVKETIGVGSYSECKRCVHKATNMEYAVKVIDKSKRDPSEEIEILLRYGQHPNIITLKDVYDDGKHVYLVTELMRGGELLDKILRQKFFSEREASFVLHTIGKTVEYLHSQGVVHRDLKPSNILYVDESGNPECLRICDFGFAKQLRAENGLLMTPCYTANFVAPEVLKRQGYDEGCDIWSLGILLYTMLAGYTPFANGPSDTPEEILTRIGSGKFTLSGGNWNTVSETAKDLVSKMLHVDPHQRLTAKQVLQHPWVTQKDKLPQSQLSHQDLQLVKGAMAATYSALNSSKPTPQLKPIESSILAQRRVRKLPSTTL
Description: Inhibition of human full length RSK1 expressed in baculovirus assessed as substrate phosphorylation using fluorescence-labelled peptides as substrate at 9 uM after 90 mins by microfluidic peptide phosphorylation assay
The target in experiment [7] is T3, Serine/threonine-protein kinase D2 (Homo sapiens) (UniProt Q9BZL6).
T3 sequence (whole entry): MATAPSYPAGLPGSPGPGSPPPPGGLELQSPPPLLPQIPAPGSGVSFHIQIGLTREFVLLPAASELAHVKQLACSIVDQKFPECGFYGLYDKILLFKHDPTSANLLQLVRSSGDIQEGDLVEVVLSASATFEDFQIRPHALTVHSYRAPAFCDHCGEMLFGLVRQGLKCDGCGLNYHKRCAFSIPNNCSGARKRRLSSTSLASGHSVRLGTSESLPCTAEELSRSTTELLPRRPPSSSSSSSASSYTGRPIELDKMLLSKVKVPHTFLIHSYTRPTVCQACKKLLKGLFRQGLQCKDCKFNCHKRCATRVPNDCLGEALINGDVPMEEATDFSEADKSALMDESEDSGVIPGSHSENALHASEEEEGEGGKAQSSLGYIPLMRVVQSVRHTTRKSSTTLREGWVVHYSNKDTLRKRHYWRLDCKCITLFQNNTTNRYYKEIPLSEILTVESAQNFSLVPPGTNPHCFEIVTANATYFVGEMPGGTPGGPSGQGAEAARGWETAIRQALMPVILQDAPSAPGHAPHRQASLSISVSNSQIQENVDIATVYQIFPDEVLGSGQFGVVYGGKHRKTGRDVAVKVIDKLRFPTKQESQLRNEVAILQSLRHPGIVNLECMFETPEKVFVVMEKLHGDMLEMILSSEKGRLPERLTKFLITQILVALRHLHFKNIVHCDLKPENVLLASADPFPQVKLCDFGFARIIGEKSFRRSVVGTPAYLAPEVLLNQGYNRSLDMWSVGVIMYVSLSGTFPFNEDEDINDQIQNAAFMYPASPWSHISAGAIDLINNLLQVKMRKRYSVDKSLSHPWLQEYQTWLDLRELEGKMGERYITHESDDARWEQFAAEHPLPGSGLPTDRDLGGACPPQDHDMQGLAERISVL
The experiment can be described thus: Inhibition of human full length PKD2 expressed in baculovirus assessed as substrate phosphorylation using fluorescence-labelled peptides as substrate at 0.06 uM after 90 mins by microfluidic peptide phosphorylation assay.

Experiment [8] concerns the target Protein kinase C beta type (Homo sapiens) (UniProt P05771). The experiment can be described thus: Inhibition of human truncated PKC beta1 expressed in baculovirus assessed as substrate phosphorylation using fluorescence-labelled peptides as substrate at 2 uM after 90 mins by microfluidic peptide phosphorylation assay.
Experiment [9] addresses Insulin receptor (Homo sapiens) (UniProt P06213). The experiment can be described thus: Inhibition of human INSR catalytic domain expressed in baculovirus assessed as substrate phosphorylation using fluorescence-labelled peptides as substrate at 2 uM after 90 mins by microfluidic peptide phosphorylation assay.
For experiment [10], the target named is Ribosomal protein S6 kinase alpha-3 (Homo sapiens) (UniProt P51812). The experiment can be described thus: Inhibition of human full length RSK2 expressed in baculovirus assessed as substrate phosphorylation using fluorescence-labelled peptides as substrate at 70 uM after 90 mins by microfluidic peptide phosphorylation assay.
Sequence of Ribosomal protein S6 kinase alpha-3 (Homo sapiens) (P51812 whole entry): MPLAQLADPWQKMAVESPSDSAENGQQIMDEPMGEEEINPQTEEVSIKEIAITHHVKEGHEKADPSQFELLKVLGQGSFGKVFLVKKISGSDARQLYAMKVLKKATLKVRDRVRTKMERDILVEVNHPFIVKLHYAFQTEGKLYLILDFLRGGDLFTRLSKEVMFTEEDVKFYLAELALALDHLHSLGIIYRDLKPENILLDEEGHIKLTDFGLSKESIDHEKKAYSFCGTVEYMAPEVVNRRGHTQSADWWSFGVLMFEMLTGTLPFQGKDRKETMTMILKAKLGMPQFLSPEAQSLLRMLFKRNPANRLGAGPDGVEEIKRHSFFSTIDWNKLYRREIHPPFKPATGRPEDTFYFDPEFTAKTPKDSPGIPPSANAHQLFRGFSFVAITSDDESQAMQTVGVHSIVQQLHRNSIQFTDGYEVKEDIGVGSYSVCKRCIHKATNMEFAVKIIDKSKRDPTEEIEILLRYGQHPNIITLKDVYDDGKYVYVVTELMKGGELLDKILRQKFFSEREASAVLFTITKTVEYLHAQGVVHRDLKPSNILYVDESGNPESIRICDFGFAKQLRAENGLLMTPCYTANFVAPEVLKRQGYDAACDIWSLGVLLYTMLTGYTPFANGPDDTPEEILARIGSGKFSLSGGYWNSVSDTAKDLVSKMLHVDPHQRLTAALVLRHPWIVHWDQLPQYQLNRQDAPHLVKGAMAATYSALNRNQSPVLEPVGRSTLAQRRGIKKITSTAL

Sequence of Aurora kinase B (Homo sapiens) (Q96GD4 whole entry): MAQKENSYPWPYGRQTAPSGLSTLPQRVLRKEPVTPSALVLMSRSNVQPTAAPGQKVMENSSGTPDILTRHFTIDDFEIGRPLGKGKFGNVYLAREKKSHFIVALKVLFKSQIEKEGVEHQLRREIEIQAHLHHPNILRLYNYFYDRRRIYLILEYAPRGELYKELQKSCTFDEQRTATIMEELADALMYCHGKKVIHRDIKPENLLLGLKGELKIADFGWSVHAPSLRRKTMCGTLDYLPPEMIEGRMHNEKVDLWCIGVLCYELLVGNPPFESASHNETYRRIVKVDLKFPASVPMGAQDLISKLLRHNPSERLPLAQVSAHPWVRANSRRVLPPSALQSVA

By inhibition is commonly meant the drop in the measured response relative to a control, in per cent. Turning to `C[C@H](CN(C)C)Oc1nc(Nc2cc3cccc(Cl)c3cn2)cnc1C#N`, the inhibition in [1] was determined as 5.5%.

In the case of `c1nc(N2CCOCC2)c2nc[nH]c2n1`, the inhibition in experiment [2] was 96%; in experiment [3] it was 38%.

For `NCCc1ccc(-c2ncnc3[nH]cnc23)cc1`, in experiment [4], the inhibition stood at 0%.

Consider `NCC1CN(c2ncnc3[nH]c4cnccc4c23)CCO1` (stereo not given), for which the inhibition in experiment [5] was determined as 37.5%; in [6], 91%.

Take `NC1(Cc2ccc(Cl)cc2)CCN(c2ncnc3[nH]ccc23)CC1`: the inhibition in [7] turned out to be 1.5%.

As for `NC1CCN(c2ncnc3[nH]ccc23)CC1`, the results for the inhibition in experiment [8] and in [9] were 16.5% and 7.5%, respectively.

As to `CNCc1ccc(-c2ncnc3[nH]cnc23)cc1`, the inhibition in [10] was determined as 75%.
